# Reference: patent US20230321123A1, “INHIBITORS OF PSEUDOMONAS AERUGINOSA VIRULENCE FACTOR LasB” (Helmholtz-Zentrum Für Infektionsforschung GmbH, priority 2020, published 2023)
# Read-outs that look alike come from different tables or passages of the source.
# Biological target: LasB (Pseudomonas aeruginosa, UniProt Q02RJ6)
# Test: biochemical
# Design: species or system P. aeruginosa
# Sequence of LasB (Q02RJ6 198-498): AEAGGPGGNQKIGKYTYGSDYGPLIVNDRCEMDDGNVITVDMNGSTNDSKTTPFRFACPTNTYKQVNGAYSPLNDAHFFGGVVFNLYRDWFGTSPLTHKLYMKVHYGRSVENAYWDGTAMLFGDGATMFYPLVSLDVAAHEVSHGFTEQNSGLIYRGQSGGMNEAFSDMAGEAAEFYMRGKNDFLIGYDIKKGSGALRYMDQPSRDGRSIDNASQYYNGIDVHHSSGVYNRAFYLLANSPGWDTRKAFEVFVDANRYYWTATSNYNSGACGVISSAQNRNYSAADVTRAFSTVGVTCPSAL
Structure (SMILES),IC50 (IC50 against LasB) [nM],other results
"O=C(Nc1ccccc1)C(S)Cc1ccccc1 (single isomer, unassigned) [Example 1 E1, 2-Mercapto-N,3-diphenylpropanamide]",4800 ± 700,
O=C(Nc1ccc(Cl)c(Cl)c1)C(S)CC1CC1 (stereo not shown) [Example 45],,IC50 (read-out: IC50 against LasB): 6300 ± 1200 nM
CC(C)CC(C(=O)N[C@@H](CC1CCOCC1)C(=O)Nc1ccc(Cl)c(Cl)c1)P(=O)(O)O (stereo partly shown) [Example 169],378 ± 8,
CCC(S)C(=O)Nc1ccc(OC)cc1 (stereo not shown) [Example 19],4200 ± 600,
COc1ccc(NC(=O)C(S)CC(C)C)cc1 (stereo not shown) [Example 34],360 ± 110,
CC(C)CC(C(=O)N[C@@H](CC1CCCCC1)C(=O)Nc1ccc(Cl)c(Cl)c1)P(=O)(O)O (stereo partly shown) [Example 158],242 ± 21,
CC(C)CC(C(=O)Nc1ccc(F)cc1)P(=O)(O)O (stereo not shown) [Example 70],93 ± 22,
CCCC(S)C(=O)Nc1ccc(C)cc1 (stereo not shown) [Example 25],2000 ± 200,
CCCCC(S)C(=O)Nc1ccc(Cl)c(Cl)c1 (stereo not shown) [Example 29],6800 ± 1100,
CC(C)CC(C(=O)N[C@H](CC(=O)Nc1ccc(Cl)c(Cl)c1)C(C)C)P(=O)(O)O (stereo partly shown) [Example 168],1760 ± 30,
CCCC(S)C(=O)Nc1ccc(Cl)c(Cl)c1 (stereo not shown) [Example 26],4000 ± 600,
O=C(Nc1nccs1)C(S)Cc1ccccc1 (stereo not shown) [Example 58],,IC50 (read-out: IC50 against LasB): 1600 ± 100 nM
CC(C)CC(C(=O)Nc1ccc(Br)nn1)P(=O)(O)O (stereo not shown) [Example 89],7910 ± 390,
CC(C)CC(S)C(=O)Nc1nc2ccccc2s1 (stereo not shown) [Example 62],650 ± 140,
CC(C)C(CC(=O)N1CCN(Cc2ccc(-c3ccc(Cl)cc3)cc2)CC1)P(=O)(O)O (stereo not shown) [Example 149],7280 ± 960,
CC(C)CC(C(=O)N[C@H](C(=O)Nc1ccc(Cl)c(Cl)c1)C1CCCCC1)P(=O)(O)O (stereo partly shown) [Example 156],12,
CC[C@H](C)[C@H](NC(=O)C(CC(C)C)P(=O)(O)O)C(=O)Nc1ccc(Cl)c(Cl)c1 (stereo partly shown) [Example 154],13 ± 1,
CCCCC(S)C(=O)Nc1ccc(OC)cc1 (stereo not shown) [Example 30],2800 ± 300,
Cc1ccc(NC(=O)C(CC(C)C)P(=O)(O)O)c(C)c1 (stereo not shown) [Example 69],84 ± 3,
O=C(Nc1ccc(C(F)(F)F)cc1)C(Cc1ccccc1)P(=O)(O)O (stereo not shown) [Example 79],102 ± 1,
CC(C)CC(C(=O)NCC(=O)Nc1ccc(Cl)c(Cl)c1)P(=O)(O)O (stereo not shown) [Example 163],1756 ± 3,
CC(C)CC(C(=O)Nc1ccc(NS(=O)(=O)c2ccc3c(c2)CN(C(=O)C(F)(F)F)CC3)cc1)P(=O)(O)O (stereo not shown) [Example 115],57 ± 3,
CC(=O)c1ccc(NC(=O)C(CC(C)C)P(=O)(O)O)cc1 (stereo not shown) [Example 67],40 ± 12,

Structure (SMILES),IC50 (IC50 against LasB) [nM],other results
CC(C)CC(C(=O)Nc1cnc(Br)nc1)P(=O)(O)O (stereo not shown) [Example 87],384 ± 2,
CCCC(S)C(=O)Nc1ccccc1 (stereo not shown) [Example 24],4800 ± 400,
CC(C)CC(C(=O)Nc1ccc(C(N)=O)nc1)P(=O)(O)O (stereo not shown) [Example 84],223 ± 16,
CC(C)CC(C(=O)Nc1ccc2c(c1)CCC2)P(=O)(O)O (stereo not shown) [Example 77],44 ± 4,
CC(C)CC(C(=O)Nc1ccc(C#N)cc1)P(=O)(O)O (stereo not shown) [Example 73],25 ± 1,
CC(C)C[C@@H](C(=O)N[C@@H](Cc1cccnc1)C(=O)Nc1ccc(Cl)c(Cl)c1)P(=O)(O)O [Example 159],1500 ± 60,
CC(C)CC(C(=O)Nc1ccc(Cl)nn1)P(=O)(O)O (stereo not shown) [Example 88],18800 ± 740,
COc1ccc(NC(=O)C(S)CC2CC2)cc1 (stereo not shown) [Example 46],3900 ± 600,
O=C(Nc1ccc(C(F)(F)F)cc1)C(CC1CCCCC1)P(=O)(O)O (stereo not shown) [Example 81],1870 ± 30,
CC(C)CC(C(=O)Nc1ccc(Cl)cn1)P(=O)(O)O (stereo not shown) [Example 82],501 ± 39,
O=C(CP(=O)(O)O)Nc1ccc(-c2ccc(Cl)cc2)cn1 [Example 90],,inhibition of LasB (@ 50 μm): 31% inhibition @ 50 μm
CCC(S)C(=O)Nc1ccc(Cl)c(Cl)c1 (stereo not shown) [Example 18],2400 ± 400,
Cc1ccc(CC(S)C(=O)Nc2ccccc2)cc1 (stereo not shown) [Example 13],,IC50 (read-out: IC50 against LasB): 2800 ± 300 nM
O=C(Nc1ccccc1)C(S)Cc1ccc(O)c([N+](=O)[O-])c1 (stereo not shown) [Example 12],,IC50 (read-out: IC50 against LasB): 2500 ± 100 nM
O=C(Nc1ccccc1)C(S)Cc1ccc(O)cc1 (stereo not shown) [Example 11],7300 ± 500,
COC(=O)c1ccsc1NC(=O)C(S)Cc1ccccc1 (stereo not shown) [Example 59],,IC50 (read-out: IC50 against LasB): 8000 ± 1000 nM
CC(C)CC(C(=O)N1CCC[C@H]1C(=O)Nc1ccc(Cl)c(Cl)c1)P(=O)(O)O (stereo partly shown) [Example 166],2540 ± 69,
CC(C)CC(C(=O)Nc1ccc2ccccc2c1)P(=O)(O)O (stereo not shown) [Example 76],64 ± 10,
CC(C)CC(C(=O)N1CCN(c2ncc(Br)cn2)CC1)P(=O)(O)O (stereo not shown) [Example 102],35800 ± 1750,
COc1ccccc1NC(=O)C(S)CC(C)C (stereo not shown) [Example 32],700 ± 40,
CC(C)CC(C(=O)Nc1ccc(Cl)c(Cl)c1)P(=O)(O)O (stereo not shown) [Example 64],26 ± 4,
CC(C)CC(C(=O)Nc1ccc(Cl)c(Cl)c1)n1nccn1 (stereo not shown) [Example 178],5500 ± 200,
CC(C)C[C@H](C(=O)N[C@@H](Cc1cccnc1)C(=O)Nc1ccc(Cl)c(Cl)c1)P(=O)(O)O [Example 160],573 ± 16,

Structure (SMILES),IC50 (IC50 against LasB) [nM],other results
Cc1ccc(NC(=O)C(CC(C)C)P(=O)(O)O)c(F)c1 (stereo not shown) [Example 65],116 ± 16,
CC(C)CC(C(=O)Nc1cccc2ccccc12)P(=O)(O)O (stereo not shown) [Example 75],69 ± 8,
CC(S)C(=O)Nc1ccc(Cl)c(Cl)c1 (stereo not shown) [Example 15],4500 ± 700,
COCC(S)C(=O)Nc1ccc(OC)cc1 (stereo not shown) [Example 50],17000 ± 1000,
CC(C)CC(C(=O)Nc1ccc(C(F)(F)F)cc1)P(=O)(O)O (stereo not shown) [Example 68],26 ± 8,
CCCC(S)C(=O)Nc1ccc(OC)cc1 (stereo not shown) [Example 27],2400 ± 600,
O=C(Nc1ccc([N+](=O)[O-])cc1)C(S)Cc1ccccc1 (stereo not shown) [Example 9],970 ± 100,
O=C(Nc1nc2ccccc2s1)C(S)Cc1ccccc1 (stereo not shown) [Example 55],750 ± 70,
O=C(Nc1cccnc1)C(S)Cc1ccccc1 (stereo not shown) [Example 60],,IC50 (read-out: IC50 against LasB): 1200 ± 100 nM
O=C(Nc1ccc(Cl)c(Cl)c1)C(S)CC1CCCCC1 (stereo not shown) [Example 47],,IC50 (read-out: IC50 against LasB): 12000 ± 3000 nM
COc1ccc2nc(NC(=O)C(S)Cc3ccccc3)sc2c1 (stereo not shown) [Example 56],950 ± 80,
CC(C)CC(C(=O)Nc1ccc(Cl)cc1)P(=O)(O)O (stereo not shown) [Example 71],48 ± 4,
"O=C(Nc1ccccc1)C(S)Cc1ccccc1 (single isomer, unassigned) [Example 1 E2, 2-Mercapto-N,3-diphenylpropanamide]",1000 ± 100,
COc1ccc(NC(=O)C(CC(C)C)P(=O)(O)O)cc1 (stereo not shown) [Example 66],52 ± 10,
CC(C)CC(C(=O)NC1CCN(Cc2ccc(Cl)cc2)CC1)P(=O)(O)O (stereo not shown) [Example 146],2270 ± 70,
CC(C)CC(C(=O)NC1CCN(c2ccc(Cl)cc2)CC1)P(=O)(O)O (stereo not shown) [Example 103],1910 ± 110,
CC(C)CC(C(=O)Nc1ccc(NC(=O)c2ccc(Cl)c(Cl)c2)cc1)P(=O)(O)O (stereo not shown) [Example 137],41 ± 3,
CCCC(S)C(=O)Nc1ccc(C(C)=O)cc1 (stereo not shown) [Example 28],2600 ± 500,
"CC(C)CC(C(=O)N[C@H](c1ncc(-c2ccc(Cl)c(Cl)c2)[nH]1)C(C)C)P(=O)(O)O (mixture of isomers) [Example 171, (1-(((S)-1-(5-(3,4-dichlorophenyl)-1H-imidazol-2-yl)-2-methylpropyl)amino)-4-methyl-1-oxopentan-2-yl)phosphonic acid]",,"IC50 (IC50 against LasB (Table 16), heteropentacycles and benzannulated heteropentacycles): 6000 ± 200 nM"
CC(C)CC(C(=O)N[C@@H](C(=O)Nc1ccc(Cl)c(Cl)c1)C(C)C)P(=O)(O)O (stereo partly shown) [Example 167],11,
COC(=O)c1ccc(NC(=O)C(CC(C)C)P(=O)(O)O)cn1 (stereo not shown) [Example 85],194 ± 11,
CC(C)CC(C(=O)Nc1ccc(Cl)c(Cl)c1)n1ccnn1 (stereo not shown) [Example 175],4300 ± 200,
CC(C)C[C@@H](C(=O)N[C@@H](Cc1ccccn1)C(=O)Nc1ccc(Cl)c(Cl)c1)P(=O)(O)O [Example 161],1360 ± 50,

Structure (SMILES),IC50 (IC50 against LasB) [nM],other results
"CC(C)CC(C(=O)N[C@H]1CCCN(Cc2ccc(Cl)cc2)C1)P(=O)(O)O (mixture of isomers) [Example 147, (1-(((S)-1-(4-Chlorobenzyl)piperidin-3-yl)amino)-4-methyl-1-oxopentan-2-yl)phosphonic acid]",5180 ± 530,
CC(C)CC(C(=O)Nc1ccc(OCc2ccc(Cl)c(Cl)c2)cc1)n1ccnn1 (stereo not shown) [Example 176],45600,
COc1ccc(NC(=O)C(S)CC2CCCCC2)cc1 (stereo not shown) [Example 48],2600 ± 1200,
Cc1ccc(NC(=O)C(CC2CCCCC2)P(=O)(O)O)cc1 (stereo not shown) [Example 80],2030 ± 110,
CC(C)CC(C(=O)N[C@@H](Cc1ccccc1)C(=O)Nc1ccc(Cl)c(Cl)c1)P(=O)(O)O (stereo partly shown) [Example 157],427 ± 48,
COCC(S)C(=O)Nc1ccc(Cl)c(Cl)c1 (stereo not shown) [Example 49],2400 ± 600,
Cc1ccc(NC(=O)C(Cc2ccccc2)P(=O)(O)O)cc1 (stereo not shown) [Example 78],137 ± 33,
COc1ccc(NC(=O)C(C)S)cc1 (stereo not shown) [Example 16],45000 ± 1000,
CC(C)CC(C(=O)Nc1ccc(Br)cc1)P(=O)(O)O (stereo not shown) [Example 72],49 ± 2,
CC(=O)c1ccc(NC(=O)C(S)CC(C)C)cc1 (stereo not shown) [Example 39],690 ± 340,
Cc1cccc(NC(=O)C(S)Cc2ccccc2)c1 (stereo not shown) [Example 7],980 ± 430,
CC(=O)c1ccc(NC(=O)C(C)S)cc1 (stereo not shown) [Example 17],89000 ± 9000,
CCC(C)C(S)C(=O)Nc1ccc(OC)cc1 (stereo not shown) [Example 44],17000 ± 2000,
CC(C)CC(C(=O)N[C@H](C(=O)Nc1ccc(Cl)c(Cl)c1)c1ccccc1)P(=O)(O)O (stereo partly shown) [Example 165],100 ± 3,
CC(C)CC(C(=O)N[C@@H](C)C(=O)Nc1ccc(Cl)c(Cl)c1)P(=O)(O)O (stereo partly shown) [Example 153],62 ± 2,
Cc1ccccc1NC(=O)C(S)Cc1ccccc1 (stereo not shown) [Example 6],,IC50 (read-out: IC50 against LasB): 2400 ± 1000 nM
COc1cccc(NC(=O)C(S)CC(C)C)c1 (stereo not shown) [Example 33],560 ± 30,
CC(C)CC(C(=O)N1CCN(c2ccc(Cl)cc2)CC1)P(=O)(O)O (stereo not shown) [Example 101],1450 ± 30,
O=C(Nc1nc2ccccc2[nH]1)C(S)Cc1ccccc1 (stereo not shown) [Example 61],7700 ± 1400,
CC(C)CC(S)C(=O)Nc1ccccc1O (stereo not shown) [Example 40],1400 ± 200,
O=C(Nc1nc2ccc(Cl)cc2s1)C(S)Cc1ccccc1 (stereo not shown) [Example 57],,IC50 (read-out: IC50 against LasB): 2400 ± 200 nM
CC(C)C[C@H](C(=O)N[C@@H](Cc1ccccn1)C(=O)Nc1ccc(Cl)c(Cl)c1)P(=O)(O)O [Example 162],416 ± 23,
